Laboratory results as given in US5580871A, “4-Heteroaryl- 1,4-dihydropyridine compounds with calcium agonist and alpha1 -antagonist activity” (The Dupont Merck Pharmaceutical Company, priority 1995, dated 1996).

Assays:
Ca^2+ channel = molecular target: T1, Ca^2+ channel (Rattus norvegicus, UniProt P22002); assay: [3H]-Nitrendipine binding assay (affinity for calcium channels); settings: rat cardiac microsomes; 0.5 nM [3H]-nitrendipine, 60 min, 25° C.
T1 construct: rat cardiac microsomes (source of Ca^2+ channels); from tissue; host or cells: rat cardiac microsomes
Procedure: [^3 H]-Nitrendipine binding assay was carried out according to the method described by G. T. Bolger, et al., Biochem. Biophys. Res. Comm., 104, 1604-1609, (1982). The reaction mixture contained rat cardiac microsomes (source of Ca^2+ channels), 0.5 nM [^3 H]-nitrendipine with or without potential displacer in Tris buffer. The mixture was incubated for 60 minutes at 25° C. and subsequently terminated by rapid filtration through a glass fiber-filter. Membrane-bound [^3 H]-nitrendipine trapped in the filter was quantitated by scintillation counting. The inhibitory concentration (IC50) of potential displacer which gives 50% displacement of the total specifically bound [^3 H]-nitrendipine is presented as a measure of the affinity of such compound for the Ca^2+ channel.

guinea pig left atria = assay: Positive inotropic effect in guinea pig left atria; settings: Cavia porcellus; for Emax: ratio of the maximum effect of the test compound to that of Bay K8644, read-out: Intrinsic Activity; for EC50: concentration that increases developed tension (DT) by 50% above the control DT, left atria paced at 2 Hz, 37° C.
Procedure: Guinea pigs are killed by cervical dislocation. The left atria are removed and mounted at 1 gm resting tension in tissue baths containing oxygenated Krebs bicarbonate solution which is kept at 37° C. The left atria are electrically paced at 2 Hz with square wave pulses of 1 msec duration. The voltage is set at 1.5×threshold level.
After a one hour equilibration period, control values for developed tension (DT, gm) are recorded. Test compounds are then added to the baths, in a cumulative manner to a maximum concentration of 10^-4, to obtain a concentration-response curve. Treatment values of DT are obtained after the drug effect has reached a plateau and the exposure time for each concentration is 5-8 minutes. Percent change of the treatment value from the control value is calculated at each concentration of the test compound.

alpha1-adrenoceptor = assay: [3H]-Prazosin binding assay (affinity for alpha1-adrenoceptors); settings: partially purified rat brain membranes; 0.2 nM [3H]-prazosin, 60 min, 25° C.
Procedure: The [^3 H]-prazosin binding assay was carried out according to the method described by Timmermans, P. B. M. W. M., Schoop, A. M. C., and Van Zwieten, P. A., Biochem. Pharmacol., 31, 899-905, (1982). The reaction mixture contained partially purified rat brain membranes (source of alpha1 -adrenoceptors), 0.2 nM [^3 H]-prazosin with or without potential displacer in Tris buffer. The mixture was incubated for 60 minutes at 25° C. and subsequently terminated by rapid filtration through glass fiber-filter. Receptor-bound [^3 H]-prazosin trapped in the filter was quantitated by scintillation counting. The inhibitory concentration (IC50) of potential displacer which gives 50% displacement of the total specifically bound [^3 H]-prazosin is presented as a measure of the affinity of such compound for the alpha1 -adrenoceptor.

T1 sequence (P22002 whole entry, other chains not shown): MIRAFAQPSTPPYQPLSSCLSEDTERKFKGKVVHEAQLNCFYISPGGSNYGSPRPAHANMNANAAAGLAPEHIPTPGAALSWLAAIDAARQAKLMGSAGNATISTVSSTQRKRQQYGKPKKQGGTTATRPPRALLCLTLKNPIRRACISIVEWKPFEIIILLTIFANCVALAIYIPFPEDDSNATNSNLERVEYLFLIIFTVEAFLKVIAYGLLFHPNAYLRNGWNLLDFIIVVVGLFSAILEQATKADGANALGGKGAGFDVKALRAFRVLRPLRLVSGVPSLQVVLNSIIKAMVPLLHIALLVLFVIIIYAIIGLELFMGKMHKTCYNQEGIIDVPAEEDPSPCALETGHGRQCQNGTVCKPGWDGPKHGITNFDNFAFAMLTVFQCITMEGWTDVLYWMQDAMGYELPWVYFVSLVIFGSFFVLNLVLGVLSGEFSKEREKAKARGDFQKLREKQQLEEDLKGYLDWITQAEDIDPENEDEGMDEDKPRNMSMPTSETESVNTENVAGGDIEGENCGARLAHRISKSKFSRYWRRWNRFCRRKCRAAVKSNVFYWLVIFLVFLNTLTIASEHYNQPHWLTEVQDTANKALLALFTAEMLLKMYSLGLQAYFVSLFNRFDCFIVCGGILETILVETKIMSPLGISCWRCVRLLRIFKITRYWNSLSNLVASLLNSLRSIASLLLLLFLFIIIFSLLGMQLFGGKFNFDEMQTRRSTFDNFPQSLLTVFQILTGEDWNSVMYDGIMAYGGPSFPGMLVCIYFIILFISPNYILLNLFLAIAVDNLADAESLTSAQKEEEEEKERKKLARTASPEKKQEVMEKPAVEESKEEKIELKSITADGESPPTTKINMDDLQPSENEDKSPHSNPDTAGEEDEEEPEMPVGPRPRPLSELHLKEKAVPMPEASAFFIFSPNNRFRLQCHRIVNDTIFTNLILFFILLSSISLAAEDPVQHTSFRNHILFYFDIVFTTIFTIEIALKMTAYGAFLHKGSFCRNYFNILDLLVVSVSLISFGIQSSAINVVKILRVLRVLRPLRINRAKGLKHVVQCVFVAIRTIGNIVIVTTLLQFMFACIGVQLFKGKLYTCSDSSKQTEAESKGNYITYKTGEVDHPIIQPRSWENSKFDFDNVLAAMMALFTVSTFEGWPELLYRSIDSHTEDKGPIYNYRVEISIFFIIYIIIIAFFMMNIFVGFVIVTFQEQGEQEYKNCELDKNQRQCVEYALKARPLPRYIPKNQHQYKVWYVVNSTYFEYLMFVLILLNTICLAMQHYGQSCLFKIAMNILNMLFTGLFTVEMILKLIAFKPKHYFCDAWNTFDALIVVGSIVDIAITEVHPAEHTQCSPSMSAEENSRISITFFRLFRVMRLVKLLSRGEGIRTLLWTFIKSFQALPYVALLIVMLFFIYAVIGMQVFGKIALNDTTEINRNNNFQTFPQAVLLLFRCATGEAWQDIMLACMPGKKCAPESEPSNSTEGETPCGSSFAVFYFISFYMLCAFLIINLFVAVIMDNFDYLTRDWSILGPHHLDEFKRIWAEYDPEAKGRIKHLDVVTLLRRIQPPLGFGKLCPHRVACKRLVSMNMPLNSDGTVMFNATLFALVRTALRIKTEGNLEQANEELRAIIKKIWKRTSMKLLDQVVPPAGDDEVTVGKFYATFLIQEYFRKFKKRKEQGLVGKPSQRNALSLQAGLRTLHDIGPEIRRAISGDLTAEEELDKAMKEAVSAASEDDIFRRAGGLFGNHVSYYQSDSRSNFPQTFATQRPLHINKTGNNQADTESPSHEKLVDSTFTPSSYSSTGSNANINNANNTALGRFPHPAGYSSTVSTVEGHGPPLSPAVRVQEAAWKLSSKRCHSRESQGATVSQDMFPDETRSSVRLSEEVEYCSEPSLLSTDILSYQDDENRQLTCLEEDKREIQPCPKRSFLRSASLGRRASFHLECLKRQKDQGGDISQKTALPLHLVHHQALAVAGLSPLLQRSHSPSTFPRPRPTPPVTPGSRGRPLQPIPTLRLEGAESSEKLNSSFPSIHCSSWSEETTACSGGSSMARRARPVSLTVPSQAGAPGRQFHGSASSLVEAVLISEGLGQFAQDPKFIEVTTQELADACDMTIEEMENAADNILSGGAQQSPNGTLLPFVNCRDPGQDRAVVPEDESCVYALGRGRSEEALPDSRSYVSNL
T1 sequence (P54290 25-944 partner limits assumed, other chains not shown): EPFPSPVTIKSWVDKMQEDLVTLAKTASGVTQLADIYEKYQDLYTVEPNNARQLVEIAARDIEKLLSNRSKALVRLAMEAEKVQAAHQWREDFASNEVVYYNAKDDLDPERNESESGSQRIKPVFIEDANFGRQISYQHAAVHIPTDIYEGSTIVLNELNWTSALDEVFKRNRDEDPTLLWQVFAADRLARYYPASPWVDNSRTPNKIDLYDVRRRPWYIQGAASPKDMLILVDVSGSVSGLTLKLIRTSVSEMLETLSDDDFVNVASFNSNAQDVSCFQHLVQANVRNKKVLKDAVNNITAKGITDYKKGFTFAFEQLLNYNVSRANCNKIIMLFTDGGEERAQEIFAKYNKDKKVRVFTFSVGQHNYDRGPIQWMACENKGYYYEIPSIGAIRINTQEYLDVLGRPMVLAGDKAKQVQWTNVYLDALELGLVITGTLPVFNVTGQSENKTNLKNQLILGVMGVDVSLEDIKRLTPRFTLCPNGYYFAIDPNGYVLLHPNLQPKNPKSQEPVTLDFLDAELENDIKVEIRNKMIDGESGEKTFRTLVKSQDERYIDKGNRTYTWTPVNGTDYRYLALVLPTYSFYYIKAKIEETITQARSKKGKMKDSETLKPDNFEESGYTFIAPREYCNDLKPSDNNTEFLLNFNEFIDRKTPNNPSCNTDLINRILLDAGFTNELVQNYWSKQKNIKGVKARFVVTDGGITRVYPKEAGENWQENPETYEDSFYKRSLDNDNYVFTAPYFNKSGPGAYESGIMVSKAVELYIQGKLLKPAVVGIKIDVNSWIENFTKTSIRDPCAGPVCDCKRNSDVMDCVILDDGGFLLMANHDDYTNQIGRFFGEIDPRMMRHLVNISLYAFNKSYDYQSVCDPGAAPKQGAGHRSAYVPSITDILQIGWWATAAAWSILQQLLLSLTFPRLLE
T1 sequence (P54290 945-1091 partner limits assumed, other chains not shown): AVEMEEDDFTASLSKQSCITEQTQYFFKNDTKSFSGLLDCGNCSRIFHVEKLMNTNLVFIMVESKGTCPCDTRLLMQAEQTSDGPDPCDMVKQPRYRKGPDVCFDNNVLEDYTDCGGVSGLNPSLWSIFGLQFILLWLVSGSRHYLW

| IC50 (Ca^2+ channel) [µM] | IC50 (alpha1-adrenoceptor) [µM] | EC50 (guinea pig left atria) [µM] | SMILES | Emax (guinea pig left atria) [%] |
| --- | --- | --- | --- | --- |
| 3.9 | 0.052 |  | COc1ccccc1N1CCN(CCCCOC(=O)C2=C(C)NC(C)=C([N+](=O)[O-])C2c2cccnc2)CC1 (stereo not drawn) [Example 52] | 35 |
| 2.7 | 0.85 | 3.7 | CC1=C(C(=O)OCCCCN2CCN(c3ncccn3)CC2)C(c2ccoc2)C([N+](=O)[O-])=C(C)N1 (stereo not drawn) [Example 68, 4-(3-Furanyl)-1,4-dihydro-2,6-dimethyl-5-nitro-3-pyridinecarboxylic acid, {4-[4-(2-pyrimidinyl)-1-piperazinyl]butyl} ester] | 147 |
| 0.36 | 5.3 | 43 | CCCOc1cc(N2CCN(CCCCCOc3ccccc3C3C(C(=O)OC)=C(C)NC(C)=C3[N+](=O)[O-])CC2)ncn1 (stereo not drawn) [Example 11] | 68 |
| 1.5 | 0.1 | 2.7 | COc1ccccc1N1CCN(CCOC(=O)C2=C(C)NC(C)=C([N+](=O)[O-])C2c2ccco2)CC1 (stereo not drawn) [Example 59] | 98 |
| 0.085 | 0.47 | 0.4 | COc1ccccc1N1CCN(CCOC(=O)C2=C(C)NC(C)=C([N+](=O)[O-])C2c2cccc3nonc23)CC1 (stereo not drawn) [Example 75] | 82 |
| 1.2 | 7.2 | 2.8 | COC(=O)C1=C(C)NC(C)=C([N+](=O)[O-])C1c1ccccc1OCCCCCN1CCN(c2cnccn2)CC1 (stereo not drawn) [Example 10] | 55 |
| 2 | 5.9 | 1.6 | CC1=C(C(=O)OCCN2CCN(c3ncccn3)CC2)C(c2ccco2)C([N+](=O)[O-])=C(C)N1 (stereo not drawn) [Example 60] | 140 |
| 2 | 0.84 | 5 | CC1=C(C(=O)OCCCCN2CCN(c3ncccn3)CC2)C(c2ccco2)C([N+](=O)[O-])=C(C)N1 (stereo not drawn) [Example 70, 4-(2-Furanyl)-1,4-dihydro-2,6-dimethyl-5-nitro-3-pyridinecarboxylic acid, {4-[4-(2-pyrimidinyl)-1-piperazinyl]butyl} ester] | 132 |
| 1.7 | 0.078 |  | COc1ccccc1N1CCN(CCCCOC(=O)C2=C(C)NC(C)=C([N+](=O)[O-])C2c2ccsc2)CC1 (stereo not drawn) [Example 71] | 40 |
| 0.95 | 5.2 | 53 | COC(=O)C1=C(C)NC(C)=C([N+](=O)[O-])C1c1ccccc1OCCCCCN1CCN(C(=O)C2COc3ccccc3O2)CC1 (stereo not drawn) [Example 9] | 62 |
| 0.085 | 17 | 0.056 | CC1=C(C(=O)OCCN2CCN(c3ncccn3)CC2)C(c2cccc3nonc23)C([N+](=O)[O-])=C(C)N1 (stereo not drawn) [Example 76] | 156 |
| 0.65 | 1.9 | 12 | COC(=O)C1=C(C)NC(C)=C([N+](=O)[O-])C1c1ccccc1OCCCCCN1CCN(c2ccc(Cl)nn2)CC1 (stereo not drawn) [Example 7] | 149 |
| 1.2 | 1.2 | 3.4 | CC1=C(C(=O)OCCCCN2CCN(c3ncccn3)CC2)C(c2cccs2)C([N+](=O)[O-])=C(C)N1 (stereo not drawn) [Example 64] | 76 |
| 2.4 | 4.9 | 0.98 | CC1=C(C(=O)OCCN2CCN(c3ncccn3)CC2)C(c2cccs2)C([N+](=O)[O-])=C(C)N1 (stereo not drawn) [Example 73] | 84 |
| 0.29 | 0.82 | > 100 | CC1=C(C(=O)OCCCCN2CCN(c3ncccn3)CC2)C(c2cccc3nonc23)C([N+](=O)[O-])=C(C)N1 (stereo not drawn) [Example 54] | 21 |
| 1.3 | 0.025 | 1.5 | COc1ccccc1N1CCN(CCOC(=O)C2=C(C)NC(C)=C([N+](=O)[O-])C2c2cccnc2)CC1 (stereo not drawn) [Example 61] | 164 |
| 3.5 | 0.063 | 24 | COc1ccccc1N1CCN(CCCCOC(=O)C2=C(C)NC(C)=C([N+](=O)[O-])C2c2ccoc2)CC1 (stereo not drawn) [Example 67] | 86 |
